Laboratory results: paper PMC11348465, “Pharmacochemical Study of Multitarget Amino Acids’ Hybrids: Design, Synthesis, In vitro, and In silico Studies” (Medicinal Chemistry (Shariqah (United Arab Emirates), 2024)
Where two headings read alike, the source gives them in different places.

Legend:
[1] = biological target: T1, soybean lipoxygenase (LOX-1) (Glycine max, UniProt P08170); assay: Soybean lipoxygenase inhibition study; assay type: biochemical; details: for inhibition at 100 µM: read-out: LOX inhibition (%); for IC50: read-out: LOX inhibition (IC50); for LOX inhibition (%): % inhibition at 100 µM
T1 construct: purchased Sigma Chemical, Co. (St Louis, MO, USA)
T1 sequence (P08170 1-839): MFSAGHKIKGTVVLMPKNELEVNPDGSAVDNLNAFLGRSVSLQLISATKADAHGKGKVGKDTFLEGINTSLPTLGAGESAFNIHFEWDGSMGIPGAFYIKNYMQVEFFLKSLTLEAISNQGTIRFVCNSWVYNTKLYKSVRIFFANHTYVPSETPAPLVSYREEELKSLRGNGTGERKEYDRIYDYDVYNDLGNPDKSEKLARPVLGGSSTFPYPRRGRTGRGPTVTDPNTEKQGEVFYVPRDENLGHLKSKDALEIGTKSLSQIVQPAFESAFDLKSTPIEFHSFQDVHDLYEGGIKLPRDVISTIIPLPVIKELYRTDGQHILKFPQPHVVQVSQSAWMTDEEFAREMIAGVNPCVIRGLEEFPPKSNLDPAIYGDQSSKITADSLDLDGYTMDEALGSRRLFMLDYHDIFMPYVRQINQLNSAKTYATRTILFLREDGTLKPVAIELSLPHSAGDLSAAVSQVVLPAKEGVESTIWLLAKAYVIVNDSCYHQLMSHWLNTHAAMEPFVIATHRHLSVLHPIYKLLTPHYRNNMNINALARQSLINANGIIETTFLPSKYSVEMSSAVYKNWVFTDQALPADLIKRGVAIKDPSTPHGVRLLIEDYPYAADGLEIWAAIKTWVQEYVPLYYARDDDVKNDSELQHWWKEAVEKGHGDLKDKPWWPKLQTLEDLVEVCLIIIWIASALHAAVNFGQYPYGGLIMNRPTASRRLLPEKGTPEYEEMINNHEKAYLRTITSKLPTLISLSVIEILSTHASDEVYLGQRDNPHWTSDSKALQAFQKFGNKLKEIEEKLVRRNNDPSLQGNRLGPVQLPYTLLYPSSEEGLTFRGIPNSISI
Protocol: Our group evaluated an in vitro study as reported previously. The tested hybrids were incubated at room temperature with sodium linoleate (100 µM) and 200 µL of enzyme solution (1/9 X 10^-4 w/v in saline). […] Different concentrations were used for the determination of IC50. A blank determination was used as a negative control.
Due to the limited work on sufficiently purified human ALOX-5 isoenzyme, most of the published research was performed on the soybean homolog. […] This study used the soybean isoenzyme LOX-1, which exerts maximal activity at pH 9.0 [72].

ovine COX-2 = biological target: T2, ovine COX-2 (Ovis aries, UniProt P79208); assay: Cyclooxygenase-2 inhibition study; assay type: biochemical; details: for COX-2 inhibition (%): % inhibition at 100 µM
T2 construct: purchased Cayman (USA)
T2 sequence (P79208 17-603): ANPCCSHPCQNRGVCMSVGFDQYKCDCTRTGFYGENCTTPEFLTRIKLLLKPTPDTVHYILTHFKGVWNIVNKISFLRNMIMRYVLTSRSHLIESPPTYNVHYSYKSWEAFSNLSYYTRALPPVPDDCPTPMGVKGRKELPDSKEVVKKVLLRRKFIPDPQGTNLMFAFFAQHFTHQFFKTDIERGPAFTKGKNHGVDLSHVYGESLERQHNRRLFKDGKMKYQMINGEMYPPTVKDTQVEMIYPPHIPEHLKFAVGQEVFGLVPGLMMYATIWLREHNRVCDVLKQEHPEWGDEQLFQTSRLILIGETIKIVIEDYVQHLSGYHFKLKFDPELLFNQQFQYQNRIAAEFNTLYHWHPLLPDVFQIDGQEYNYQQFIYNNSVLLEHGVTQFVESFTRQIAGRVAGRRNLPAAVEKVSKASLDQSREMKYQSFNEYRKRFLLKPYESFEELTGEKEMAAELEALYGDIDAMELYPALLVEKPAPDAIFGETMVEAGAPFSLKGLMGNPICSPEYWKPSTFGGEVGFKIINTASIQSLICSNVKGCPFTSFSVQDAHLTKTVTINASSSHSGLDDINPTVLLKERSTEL
Protocol: The in vitro study of cyclooxygenase (COX) activity was determined by using arachidonic acid (AA) as the substrate and N,N,N’,N’-tetramethylphenylenediamine (TMPD) as the co-substrate. […] The absorption due to the spontaneous oxidation of TMPD was subtracted from the initial rate of oxidation observed in the presence of AA. […] A blank determination was used first to serve as a negative control. Indomethacin was used as a reference COX-2 inhibitor (positive control).
The role of COX-2 in neurodegenerative diseases has been reported, and COX-2 inhibition is considered of high importance as a therapeutic tool. The designed derivatives were tested for their COX-2 inhibition activity on the ovine COX-2 enzyme. […] Indomethacin was used as a reference compound.

[2] = Inhibition of linoleic acid peroxidation (AAPH-induced)
Protocol: Our group evaluated the in vitro study as reported previously. Ten 16 mM sodium linoleate solution microliters were added to the UV cuvette containing 93 µL of a 0.05 M phosphate buffer, pH 7.4, and 10 µL of the tested compounds (final concentration 100 µM). The oxidation reaction started at 37 °C under air by adding 50 µL of the free radical initiator AAPH (40 mM). Oxidation was carried out and monitored at 234 nm. DMSO under the same conditions was used as a negative control. Trolox was used as the appropriate standard (positive control). The results are given in Table S1 in the supplementary material.
We used the water-soluble 2, 2’-azobis(2-amidinopropane) hydrochloride (AAPH) to generate in vitro peroxyl radicals through spontaneous thermal decomposition, which resembles cellular lipid peroxidation due to the activity of the undertaken radicals. The anti-lipid peroxidation activities were compared to a well-known antioxidant, i.e., Trolox (Table S1 in the supplementary material). […] In general, the anti-lipid peroxidation ranged from 8-99%. Except for acids 11, 12, 17, 19, 21, 22, 24, 25, and 28, which present high antioxidant activities (on the high % level), the other cinnamic acids present low or medium activity.

[3] = cited from earlier work
albumin = assay: Albumin denaturation studies
Protocol: The synthesized compounds were evaluated for the inhibition of albumin denaturation. Test tubes containing 1 mL of albumin solution (1% w/v in phosphate buffer pH=7.4), buffer, and 20 μL of the tested compounds dissolved in DMSO are incubated at 37°C for 15 minutes (final concentration 100 µM). The incubation follows at 60°C for another 15 minutes to induce albumin denaturation. The samples are cooled to room temperature. Their absorbance was measured at 660 nm. DMSO was used as a blank solution and acetylsalicylic acid as a reference compound. The results are given in Table S1 in the supplementary material.
Protein denaturation has correlated well with the inflammatory response, leading to various inflammatory diseases. It is known that tissue injury during life might refer to the denaturation of cells' protein constituents or intercellular substances. […] Many anti-inflammatory drugs can inhibit the heat-coagulation of serum albumin [78]. Thus, the inhibition of albumin heat-coagulation activity of the designed molecules was examined in vitro [60] as a measure of their anti-inflammatory activity. The experimental results were compared to the standard drug, acetylsalicylic acid. […] The results are given in Table S1 in the supplementary material.

[4] = read-out: COX-2 inhibition (IC50)

With `O=C(O)/C=C/c1ccc(C(F)(F)F)cc1` [Compound 13] the inhibition at 100 µM [1] was 42%, the inhibition at 100 µM (ovine COX-2) was 32% and the “AAPH inhibition (%, at 100 µM)” value [2] was 37%.

For `COc1ccc(/C=C/C(=O)O)cc1OC` [Compound 18], the “AAPH inhibition (%, at 100 µM)” value [3] is given as 86% and the inhibition at 100 µM (ovine COX-2) is given as 19%.

For `COC(=O)CC[C@H](NC(=O)/C=C/c1ccc(OC(C)=O)cc1)C(=O)OC` [Compound 30c], the IC50 [1] was 100 µM, the “COX-2 inhibition (%)” value (ovine COX-2) was 6% and the “AAPH inhibition (%, at 100 µM)” value [2] was 16%.

For `COC(=O)CCCNC(=O)/C=C/c1cccs1` [Compound 21b], the “LOX inhibition (%)” value [1] was 0%, the “COX-2 inhibition (%)” value (ovine COX-2) was 38% and the “AAPH inhibition (%, at 100 µM)” value [2] was 73%.

For `COC(=O)CC[C@H](NC(=O)/C=C/c1ccc(O)c(OC)c1)C(=O)OC` [Compound 24c], the IC50 [1] was 75 µM, the “COX-2 inhibition (%)” value (ovine COX-2) was 9% and the “AAPH inhibition (%, at 100 µM)” value [2] was 12%.

For `N#Cc1ccc(/C=C/C(=O)O)cc1` [Compound 26], the inhibition at 100 µM [1] is listed as 27%, the “AAPH inhibition (%, at 100 µM)” value [3] is listed as 20% and the IC50 (ovine COX-2) is listed as 65 µM.

For `CCOC(=O)CNC(=O)/C=C/c1ccc(OC)c(OC)c1` [Compound 18a], the IC50 [1] was 62.5 µM, the “COX-2 inhibition (%)” value (ovine COX-2) was 14% and the “AAPH inhibition (%, at 100 µM)” value [2] was 99%.

For `COC(=O)CCCNC(=O)/C=C/c1ccc(O)c(O)c1` [Compound 28b], the “Albumin denaturation (%, at 100 µM)” value (albumin) was 44%, the IC50 (ovine COX-2; [4]) was 100 µM and the “AAPH inhibition (%, at 100 µM)” value [2] was 58%.

With `COC(=O)CC[C@H](NC(=O)/C=C/c1cccc2ccccc12)C(=O)OC` [Compound 17c] the IC50 [1] was 68 µM, the IC50 (ovine COX-2; [4]) was 62 µM and the “AAPH inhibition (%, at 100 µM)” value [2] was 57%.

For `COC(=O)CC[C@H](NC(=O)/C=C/c1ccc2c(c1)OC(C)(C)O2)C(=O)OC` [Compound 29c], the “Albumin denaturation (%, at 100 µM)” value (albumin) was 75% and the “AAPH inhibition (%, at 100 µM)” value [2] was 27%.

In the case of `O=C(O)/C=C/c1cccc(Oc2ccccc2)c1` [Compound 12], the “AAPH inhibition (%, at 100 µM)” value [3] is given as 84% and the inhibition at 100 µM (ovine COX-2) is given as 39%.

With `CCOC(=O)CNC(=O)/C=C/c1ccc2c(c1)OC(C)(C)O2` [Compound 29a] the “Albumin denaturation (%, at 100 µM)” value (albumin) was 25%, the “COX-2 inhibition (%)” value (ovine COX-2) was 38% and the “AAPH inhibition (%, at 100 µM)” value [2] was 80%.

With `CCOC(=O)CNC(=O)/C=C/c1ccc2c(c1)OCO2` [Compound 20a] the “LOX inhibition (%)” value [1] was 6%, the IC50 (ovine COX-2; [4]) was 75 µM and the “AAPH inhibition (%, at 100 µM)” value [2] was 70%.

For `O=C(O)/C=C/c1cccs1` [Compound 21], the “AAPH inhibition (%, at 100 µM)” value [3] is listed as 60%.

With `CC(=O)Oc1ccccc1C(=O)O` [Aspirin, acetylsalicylic acid, reference compound] the “Albumin denaturation (%, at 100 µM)” value (albumin) was 31.2%.

For `CCOC(=O)CNC(=O)/C=C/c1cccs1` [Compound 21a], the “LOX inhibition (%)” value [1] was 20%, the IC50 (ovine COX-2; [4]) was 55 µM and the “AAPH inhibition (%, at 100 µM)” value [2] was 15%.
